# In patent publication US20050197350A1, “Novel quinoline, tetrahydroquinazoline, and pyrimidine derivatives and methods of treatment related to the use thereof” (TAISHO PHARMACEUTICAL CO., LTD., priority 2003, published 2005):
# Tested on: MCH receptors
# Test: MCH receptor activity class (method not given)
# Conditions: activity class 1-3: percent of control at 10^-7 M or IC50
row,SMILES,class
1,CN(C)c1ccnc(N[C@H]2CC[C@@H](NC(=O)OCc3ccccc3Cl)CC2)n1 [compound 1636],3 (Class 3 The value of percent of control at 10^−7 M was more than 60% or the value of IC50 was more than 200 nM.)
2,CN(C)c1ccnc(N[C@H]2CC[C@@H](NC(=O)OCC3c4ccccc4-c4ccccc43)CC2)n1 [compound 1637],3 (Class 3 The value of percent of control at 10^−7 M was more than 60% or the value of IC50 was more than 200 nM.)
3,CN(C)c1ccnc(N[C@H]2CC[C@@H](NC(=O)OCC(Cl)(Cl)Cl)CC2)n1 [compound 1638],3 (Class 3 The value of percent of control at 10^−7 M was more than 60% or the value of IC50 was more than 200 nM.)
4,CN(C)c1ccnc(N[C@H]2CC[C@@H](CNC(=O)OCCOCc3ccccc3)CC2)n1 [compound 1639],3 (Class 3 The value of percent of control at 10^−7 M was more than 60% or the value of IC50 was more than 200 nM.)
5,CN(C)c1ccnc(N[C@H]2CC[C@@H](CNC(=O)OCC(C)(C)C)CC2)n1 [compound 1640],3 (Class 3 The value of percent of control at 10^−7 M was more than 60% or the value of IC50 was more than 200 nM.)
6,COc1cc(COC(=O)NC[C@H]2CC[C@@H](Nc3nccc(N(C)C)n3)CC2)c([N+](=O)[O-])cc1OC [compound 1641],3 (Class 3 The value of percent of control at 10^−7 M was more than 60% or the value of IC50 was more than 200 nM.)
7,CN(C)c1ccnc(N[C@H]2CC[C@@H](CNC(=O)Oc3cccc(C(F)(F)F)c3)CC2)n1 [compound 1642],3 (Class 3 The value of percent of control at 10^−7 M was more than 60% or the value of IC50 was more than 200 nM.)
8,CN(C)c1ccnc(N[C@H]2CC[C@@H](CNC(=O)Oc3ccc(Br)cc3)CC2)n1 [compound 1643],3 (Class 3 The value of percent of control at 10^−7 M was more than 60% or the value of IC50 was more than 200 nM.)
9,COc1ccccc1OC(=O)NC[C@H]1CC[C@@H](Nc2nccc(N(C)C)n2)CC1 [compound 1644],3 (Class 3 The value of percent of control at 10^−7 M was more than 60% or the value of IC50 was more than 200 nM.)
10,COCCOC(=O)NC[C@H]1CC[C@@H](Nc2nccc(N(C)C)n2)CC1 [compound 1645],3 (Class 3 The value of percent of control at 10^−7 M was more than 60% or the value of IC50 was more than 200 nM.)
11,CCCCCCCCOC(=O)NC[C@H]1CC[C@@H](Nc2nccc(N(C)C)n2)CC1 [compound 1646],3 (Class 3 The value of percent of control at 10^−7 M was more than 60% or the value of IC50 was more than 200 nM.)
12,CCOC(=O)NC[C@H]1CC[C@@H](Nc2nccc(N(C)C)n2)CC1 [compound 1647],3 (Class 3 The value of percent of control at 10^−7 M was more than 60% or the value of IC50 was more than 200 nM.)
13,CN(C)c1ccnc(NC2CCC(CNC(=O)OCc3ccc([N+](=O)[O-])cc3)CC2)n1 (centres unmarked) [compound 1648],3 (Class 3 The value of percent of control at 10^−7 M was more than 60% or the value of IC50 was more than 200 nM.)
14,CN(C)c1ccnc(N[C@H]2CC[C@@H](CNC(=O)Oc3ccc4ccccc4c3)CC2)n1 [compound 1649],3 (Class 3 The value of percent of control at 10^−7 M was more than 60% or the value of IC50 was more than 200 nM.)
15,C=CCOC(=O)NC[C@H]1CC[C@@H](Nc2nccc(N(C)C)n2)CC1 [compound 1650],3 (Class 3 The value of percent of control at 10^−7 M was more than 60% or the value of IC50 was more than 200 nM.)
16,CN(C)c1ccnc(NC2CCC(CNC(=O)OCc3ccccc3)CC2)n1 (centres unmarked) [compound 1651],3 (Class 3 The value of percent of control at 10^−7 M was more than 60% or the value of IC50 was more than 200 nM.)

row,SMILES,class
1,CN(C)c1ccnc(N[C@H]2CC[C@@H](CNC(=O)Oc3ccccc3)CC2)n1 [compound 1652],3 (Class 3 The value of percent of control at 10^−7 M was more than 60% or the value of IC50 was more than 200 nM.)
2,CC(C)[C@@H]1CC[C@@H](C)CC1OC(=O)NC[C@H]1CC[C@@H](Nc2nccc(N(C)C)n2)CC1 (some centres unmarked) [compound 1653],3 (Class 3 The value of percent of control at 10^−7 M was more than 60% or the value of IC50 was more than 200 nM.)
3,Cc1ccc(OC(=O)NC[C@H]2CC[C@@H](Nc3nccc(N(C)C)n3)CC2)cc1 [compound 1654],3 (Class 3 The value of percent of control at 10^−7 M was more than 60% or the value of IC50 was more than 200 nM.)
4,COC(=O)NC[C@H]1CC[C@@H](Nc2nccc(N(C)C)n2)CC1 [compound 1655],3 (Class 3 The value of percent of control at 10^−7 M was more than 60% or the value of IC50 was more than 200 nM.)
5,CN(C)c1ccnc(N[C@H]2CC[C@@H](CNC(=O)OCc3ccccc3Cl)CC2)n1 [compound 1656],3 (Class 3 The value of percent of control at 10^−7 M was more than 60% or the value of IC50 was more than 200 nM.)
6,CN(C)c1ccnc(N[C@H]2CC[C@@H](CNC(=O)OCC3c4ccccc4-c4ccccc43)CC2)n1 [compound 1657],3 (Class 3 The value of percent of control at 10^−7 M was more than 60% or the value of IC50 was more than 200 nM.)
7,CN(C)c1ccnc(N[C@H]2CC[C@@H](CNC(=O)OCC(Cl)(Cl)Cl)CC2)n1 [compound 1658],3 (Class 3 The value of percent of control at 10^−7 M was more than 60% or the value of IC50 was more than 200 nM.)
8,CN(C)c1nc(N[C@H]2CC[C@@H](NC(=O)Nc3ccccc3Cl)CC2)nc2c1CCCC2 [compound 1659],3 (Class 3 The value of percent of control at 10^−7 M was more than 60% or the value of IC50 was more than 200 nM.)
9,Cc1cccc(C)c1NC(=O)N[C@H]1CC[C@@H](Nc2nc3c(c(N(C)C)n2)CCCC3)CC1 [compound 1660],3 (Class 3 The value of percent of control at 10^−7 M was more than 60% or the value of IC50 was more than 200 nM.)
10,CN(C)c1nc(N[C@H]2CC[C@@H](NC(=O)Nc3ccc(F)cc3F)CC2)nc2c1CCCC2 [compound 1661],3 (Class 3 The value of percent of control at 10^−7 M was more than 60% or the value of IC50 was more than 200 nM.)
11,CCc1cccc(C)c1NC(=O)N[C@H]1CC[C@@H](Nc2nc3c(c(N(C)C)n2)CCCC3)CC1 [compound 1662],1 (Class 1: The value of percent of control at 10^−7 M was less than 40% or the value of IC50 was less than 50 nM.)
12,CN(C)c1nc(N[C@H]2CC[C@@H](NC(=O)Nc3ccc(F)cc3)CC2)nc2c1CCCC2 [compound 1664],2 (Class 2: The value of percent of control at 10^−7 M was from 40% to 60% or the value of IC′50 was from 50 nM to 200 nM.)
13,CSc1ccc(NC(=O)N[C@H]2CC[C@@H](Nc3nc4c(c(N(C)C)n3)CCCC4)CC2)cc1 [compound 1665],3 (Class 3 The value of percent of control at 10^−7 M was more than 60% or the value of IC50 was more than 200 nM.)
14,CN(C)c1nc(N[C@H]2CC[C@@H](NC(=O)Nc3ccccc3C(F)(F)F)CC2)nc2c1CCCC2 [compound 1666],3 (Class 3 The value of percent of control at 10^−7 M was more than 60% or the value of IC50 was more than 200 nM.)
15,Cc1cc(C)c(NC(=O)N[C@H]2CC[C@@H](Nc3nc4c(c(N(C)C)n3)CCCC4)CC2)c(C)c1 [compound 1667],1 (Class 1: The value of percent of control at 10^−7 M was less than 40% or the value of IC50 was less than 50 nM.)
16,Cc1ccccc1NC(=O)N[C@H]1CC[C@@H](Nc2nc3c(c(N(C)C)n2)CCCC3)CC1 [compound 1668],3 (Class 3 The value of percent of control at 10^−7 M was more than 60% or the value of IC50 was more than 200 nM.)
